# In PubChem BioAssay AID1259411 (Chemical Carcinogenesis Research Information System (CCRIS), 2018):
# Calls of active or inactive are those of the source. No rule for the calls is given here.
# System: rodent carcinogenicity bioassays, tumor incidence
# Test: CCRIS carcinogenicity studies
# Settings: Dose: 0, Dose: 0
# Summary of the method: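 NCI-built, expert-reviewed records of carcinogenicity and related test outcomes (mutagenicity, tumor promotion/inhibition) compiled from published and report sources, historical span 1985-2011, not updated.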
smiles,measurement,setting,value
CN(CCCC(=O)c1cccnc1)N=O,carcinogen call,"Species: HAMSTER, Strain/Sex: SYRIAN/FEMALE, Route: INTRATRACHEAL, 0.05, 5, 50 MG/KG ONCE ADMINISTERED TO MOTHERS ON DAY 15 OF GESTATION (STUDY DURATION: 59 WK), 0.05, 5, 50 MG/KG ONCE ADMINISTERED TO MOTHERS ON DAY 15 OF GESTATION (STUDY DURATION: 59 WK), Tumor Site: Type of Lesion: NASAL CAVITY: ADENOCARCINOMA, ADRENAL GLAND: TUMOR, PANCREAS: ADENOMA, Tumor Site: Type of Lesion: NASAL CAVITY: ADENOCARCINOMA, ADRENAL GLAND: TUMOR, PANCREAS: ADENOMA",active; positive
same,carcinogen call,"Species: HAMSTER, Strain/Sex: SYRIAN/FEMALE, Route: SUBCUTANEOUS, 1, 5, 10, 20 MG/KG ONCE ADMINISTERED TO MOTHERS ON DAY 15 OF GESTATION (STUDY DURATION: 59 WK), 1, 5, 10, 20 MG/KG ONCE ADMINISTERED TO MOTHERS ON DAY 15 OF GESTATION (STUDY DURATION: 59 WK), Tumor Site: Type of Lesion: NASAL CAVITY: ADENOCARCINOMA, ADRENAL GLAND: TUMOR",active; positive
same,carcinogen call,"Species: HAMSTER, Strain/Sex: SYRIAN/FEMALE, Route: TRANSPLACENTAL, 50 MG/KG IN DISTILLED WATER ADMINISTERED INTRATRACHEALLY TO MOTHERS ON DAY 15 OF GESTATION (STUDY DURATION: 48 WK), Tumor Site: Type of Lesion: ADRENAL GLAND: TUMOR, COLON: TUMOR, LYMPHOID TISSUE: LYMPHOMA, Tumor Site: Type of Lesion: ADRENAL GLAND: TUMOR, COLON: TUMOR, LYMPHOID TISSUE: LYMPHOMA",active; positive
same,carcinogen call,"Species: HAMSTER, Strain/Sex: SYRIAN/MALE, Route: INTRATRACHEAL, 0.05, 5, 50 MG/KG ONCE ADMINISTERED TO MOTHERS ON DAY 15 OF GESTATION (STUDY DURATION: 59 WK), 0.05, 5, 50 MG/KG ONCE ADMINISTERED TO MOTHERS ON DAY 15 OF GESTATION (STUDY DURATION: 59 WK), Tumor Site: Type of Lesion: NASAL CAVITY: ADENOCARCINOMA, ADRENAL GLAND: TUMOR",active; positive
same,carcinogen call,"Species: HAMSTER, Strain/Sex: SYRIAN/MALE, Route: SUBCUTANEOUS, 1, 5, 10, 20 MG/KG ONCE ADMINISTERED TO MOTHERS ON DAY 15 OF GESTATION (STUDY DURATION: 59 WK), 1, 5, 10, 20 MG/KG ONCE ADMINISTERED TO MOTHERS ON DAY 15 OF GESTATION (STUDY DURATION: 59 WK), Tumor Site: Type of Lesion: NASAL CAVITY: ADENOCARCINOMA, ADRENAL GLAND: TUMOR",active; positive
same,carcinogen call,"Species: HAMSTER, Strain/Sex: SYRIAN/MALE, Route: TRANSPLACENTAL, 50 MG/KG IN DISTILLED WATER ADMINISTERED INTRATRACHEALLY TO MOTHERS ON DAY 15 OF GESTATION (STUDY DURATION: 48 WK), Tumor Site: Type of Lesion: NASAL CAVITY: TUMOR",active; positive
same,carcinogen call,"Species: MOUSE, Strain/Sex: C3B6F1/FEMALE, Route: TRANSPLACENTAL, 100 MG/KG (0.5 MMOL) IN 0.9% STERILE SALINE ADMINISTERED INTRAPERITONEALLY ON DAYS 14, 16 AND 18 OF GESTATION (STUDY",inactive; negative
same,carcinogen call,"Species: MOUSE, Strain/Sex: C3B6F1/MALE, Route: TRANSPLACENTAL, 100 MG/KG (0.5 MMOL) IN 0.9% STERILE SALINE ADMINISTERED INTRAPERITONEALLY ON DAYS 14, 16 AND 18 OF GESTATION (STUDY, Tumor Site: Type of Lesion: LIVER: HEPATOCELLULAR ADENOMA OR CARCINOMA",active; positive
same,carcinogen call,"Species: MOUSE, Strain/Sex: C3H/HE/FEMALE, Route: INTRAPERITONEAL, 100 MG/KG (0.5 MMOL) IN 0.9% STERILE SALINE ONCE ON DAYS 14, 16 AND 18 OF PREGNANCY (STUDY DURATION: 24 WK), Tumor Site: Type of Lesion: LUNG: TUMOR",active; positive
same,carcinogen call,"Species: MOUSE, Strain/Sex: STRAIN-A/FEMALE, Route: GAVAGE, 1, 2, 3 UMOL IN 0.1 ML COTTONSEED OIL 1/WK FOR 8 WK (STUDY DURATION: 26 WK), 1, 2, 3 UMOL IN 0.1 ML COTTONSEED OIL 1/WK FOR 8 WK (STUDY DURATION: 26 WK), Tumor Site: Type of Lesion: LUNG: ADENOMA",active; positive
same,carcinogen call,"Species: MOUSE, Strain/Sex: STRAIN-A/FEMALE, Route: INTRAPERITONEAL, 1, 2, 3 UMOL IN 0.1 ML COTTONSEED OIL 1/WK FOR 8 WK (STUDY DURATION: 26 WK), 1, 2, 3 UMOL IN 0.1 ML COTTONSEED OIL 1/WK FOR 8 WK (STUDY DURATION: 26 WK), Tumor Site: Type of Lesion: LUNG: ADENOMA",active; positive
same,carcinogen call,"Species: MOUSE, Strain/Sex: STRAIN-A/FEMALE, Route: INTRAPERITONEAL, 5, 20 UMOL TOTAL DOSE ADMINISTERED IN SUBDOSES 3/WK FOR 7 WK (STUDY DURATION: 37 WK), 5, 20 UMOL TOTAL DOSE ADMINISTERED IN SUBDOSES 3/WK FOR 7 WK (STUDY DURATION: 37 WK), Tumor Site: Type of Lesion: LUNG: TUMOR",active; positive
same,carcinogen call,"Species: MOUSE, Strain/Sex: STRAIN-A/FEMALE, Route: INTRAPERITONEAL, 20 UMOL MOUSE (TOTAL DOSE) ADMINISTERED IN 0.1 ML SALINE 3/WK (TOTAL 20 INJECTIONS) (STUDY DURATION: 37 WK), Tumor Site: Type of Lesion: LUNG: ADENOCARCINOMA, ADENOMA",active; positive
same,carcinogen call,"Species: MOUSE, Strain/Sex: STRAIN-A/FEMALE, Route: TRANSPLACENTAL, 100 MG/KG (0.5 MMOL) IN 0.9% STERILE SALINE ADMINISTERED INTRAPERITONEALLY ON DAYS 14, 16 AND 18 OF GESTATION (STUDY, Tumor Site: Type of Lesion: LUNG: TUMOR",active; positive
same,carcinogen call,"Species: MOUSE, Strain/Sex: STRAIN-A/MALE, Route: TRANSPLACENTAL, 100 MG/KG (0.5 MMOL) IN 0.9% STERILE SALINE ADMINISTERED INTRAPERITONEALLY ON DAYS 14, 16 AND 18 OF GESTATION (STUDY",inactive; negative
same,carcinogen call,"Species: MOUSE, Strain/Sex: SWISS/FEMALE, Route: INTRAPERITONEAL, 50 MG/KG IN STERILE SALINE ADMINISTERED ON POSTNATAL D 1, 3, 5, 7 AND 10 (STUDY DURATION: 15 MO), Tumor Site: Type of Lesion: LIVER: HEPATOCELLULAR ADENOMA OR CARCINOMA, LUNG: TUMOR",active; positive
same,carcinogen call,"Species: MOUSE, Strain/Sex: SWISS/FEMALE, Route: TRANSPLACENTAL, 100 MG/KG (0.5 MMOL) IN 0.9% STERILE SALINE ADMINISTERED INTRAPERITONEALLY ON DAYS 15, 17 AND 19 OF GESTATION (STUDY",inactive; negative
same,carcinogen call,"Species: MOUSE, Strain/Sex: SWISS/MALE, Route: INTRAPERITONEAL, 50 MG/KG IN STERILE SALINE ADMINISTERED ON POSTNATAL D 1, 3, 5, 7 AND 10 (STUDY DURATION: 15 MO), Tumor Site: Type of Lesion: LIVER: HEPATOCELLULAR ADENOMA OR CARCINOMA, LUNG: TUMOR",active; positive
same,carcinogen call,"Species: MOUSE, Strain/Sex: SWISS/MALE, Route: TRANSPLACENTAL, 100 MG/KG (0.5 MMOL) IN 0.9% STERILE SALINE ADMINISTERED INTRAPERITONEALLY ON DAYS 15, 17 AND 19 OF GESTATION (STUDY",inactive; negative
same,carcinogen call,"Species: RAT, Strain/Sex: F344/FEMALE, Route: GAVAGE, 11 MG/WK FOR A TOTAL DOSE OF 1.3 MMOL (STUDY DYRATION: 50 WK), Tumor Site: Type of Lesion: LIVER: TUMOR, LUNG: TUMOR, NASAL MUCOSA: TUMOR, Tumor Site: Type of Lesion: LIVER: TUMOR, LUNG: TUMOR, NASAL MUCOSA: TUMOR",active; positive
same,carcinogen call,"Species: RAT, Strain/Sex: F344/FEMALE, Route: INTRAVESICULAR, 5.5 MG IN 0.2 ML ETHANOL: DEIONIZED WATER (1:3) 2/WK FOR 30 WK (TOTAL DOSE 1.5 MMOL) (STUDY DURATION: LIFESPAN), Tumor Site: Type of Lesion: LUNG: TUMOR, LIVER: TUMOR",active; positive
same,carcinogen call,"Species: RAT, Strain/Sex: F344/FEMALE, Route: SUBCUTANEOUS, 1, 3, 9 MMOL/KG BW (TOTAL DOSE) WITH SUBDOSES GIVEN 3/WK FOR 20 WK WITH A 2 WK INTERRUPTION AFTER 7 WK (STUDY DURATIO, 1, 3, 9 MMOL/KG BW (TOTAL DOSE) WITH SUBDOSES GIVEN 3/WK FOR 20 WK WITH A 2 WK INTERRUPTION AFTER 7 WK (STUDY DURATIO, Tumor Site: Type of Lesion: NASAL CAVITY: TUMORS, LUNG: TUMORS, LIVER: TUMORS, Tumor Site: Type of Lesion: NASAL CAVITY: TUMORS, LUNG: TUMORS, LIVER: TUMORS",active; positive
same,carcinogen call,"Species: RAT, Strain/Sex: F344/MALE, Route: MUCOUS MEMBRANE, 0.3 ML OF A 15 MMOL WATER SOLUTION 1/D 3 D/WK FOR 1 WK THEN 1/D 5 D/WK FOR WK 2-4 THEN 2/D 5 D/WK FOR WK 5-61 (STUDY, Tumor Site: Type of Lesion: LUNG: ADENOSQUAMOUS CARCINOMA, ADENOCARCINOMA, ADENOMA, NASAL CAVITY: CARCINOMA, PAPILLOMA, ADENOMA, ORAL CAVITY: PAPILL, Tumor Site: Type of Lesion: LUNG: ADENOSQUAMOUS CARCINOMA, ADENOCARCINOMA, ADENOMA, NASAL CAVITY: CARCINOMA, PAPILLOMA, ADENOMA, ORAL CAVITY: PAPILL",active; positive
same,carcinogen call,"Species: RAT, Strain/Sex: F344/MALE, Route: ORAL, 0.5, 1, 5 PPM IN DRINKING WATER FOR DURATION OF STUDY (TOTAL DOSE: 0; 0.073; 0.17; 0.68 MMOL/KG) (STUDY DURATION: 128, 0.5, 1, 5 PPM IN DRINKING WATER FOR DURATION OF STUDY (TOTAL DOSE: 0; 0.073; 0.17; 0.68 MMOL/KG) (STUDY DURATION: 128, Tumor Site: Type of Lesion: NASAL CAVITY: TUMOR, LIVER: ADENOMA, HEPATOMA, LUNG: ADENOMA, ADENOCARCINOMA, ADENOSQUAMOUS CARCINOMA, SQUAMOUS CELL CAR, Tumor Site: Type of Lesion: NASAL CAVITY: TUMOR, LIVER: ADENOMA, HEPATOMA, LUNG: ADENOMA, ADENOCARCINOMA, ADENOSQUAMOUS CARCINOMA, SQUAMOUS CELL CAR",active; positive
same,carcinogen call,"Species: RAT, Strain/Sex: F344/MALE, Route: SUBCUTANEOUS, 1, 3, 9 MMOL/KG BW (TOTAL DOSE) WITH SUBDOSES GIVEN 3/WK FOR 20 WK WITH A 2 WK INTERRUPTION AFTER 7 WK (STUDY DURATIO, 1, 3, 9 MMOL/KG BW (TOTAL DOSE) WITH SUBDOSES GIVEN 3/WK FOR 20 WK WITH A 2 WK INTERRUPTION AFTER 7 WK (STUDY DURATIO, Tumor Site: Type of Lesion: NASAL CAVITY: TUMORS, LUNG: TUMORS, LIVER: TUMORS, Tumor Site: Type of Lesion: NASAL CAVITY: TUMORS, LUNG: TUMORS, LIVER: TUMORS",active; positive
